From PMC9395446, “First-in-human phase 1/1b study to evaluate sitravatinib in patients with advanced solid tumors” (Investigational New Drugs, 2022)

Experiment: Safety in phase 1/1b study (DLTs, TRAEs, TEAEs; CTCAE v4.03)
Type: in vivo, human
Details: Phase 1
Source text: Safety assessments included evaluation of DLTs, AEs, physical examinations, vital sign measurements, electrocardiogram recordings and laboratory tests.
A DLT was defined as a grade ≥ 4 hematologic abnormality lasting ≥ 4 days; grade 3 thrombocytopenia with clinically significant bleeding; febrile neutropenia; clinically significant grade ≥ 3 non-hematologic AEs not related to underlying malignancy; intolerable grade 2 AEs; or toxicity resulting in an inability to deliver 80% of the dose during the first treatment cycle.
The safety population included all patients who received ≥ 1 dose of sitravatinib. […] The PK evaluable population included all patients with sufficient concentration-time data for PK parameter evaluation. The modified intent-to-treat (mITT) population included all phase 1b patients who received ≥ 1 dose of study drug.

COCCNCc1ccc(-c2cc3nccc(Oc4ccc(NC(=O)C5(C(=O)Nc6ccc(F)cc6)CC5)cc4F)c3s2)nc1 [sitravatinib, Sitravatinib]
Abdominal pain TRAE, any grade: 0 n (%)
Abdominal pain TRAE, grade ≥3: 0 n (%)
Anemia TEAE, any grade: 5 (15.6) n (%)
Anemia TEAE, grade ≥3: 1 (3.1) n (%)
Any TEAE: 31 (96.9) n (%)
Any TRAE: 24 (75.0) n (%)
Asthenia TEAE, any grade: 4 (12.5) n (%)
Asthenia TEAE, grade ≥3: 0 n (%)
Back pain TEAE, any grade: 8 (25.0) n (%)
Blood and lymphatic system disorders TEAE, any grade: 7 (21.9) n (%)
Blood and lymphatic system disorders TEAE, grade ≥3: 2 (6.3) n (%)
Blood creatinine increased TEAE, any grade: 3 (9.4) n (%)
Blood creatinine increased TEAE, grade ≥3: 0 n (%)
Cardiac disorders TEAE, any grade: 3 (9.4) n (%)
Cardiac disorders TEAE, grade ≥3: 2 (6.3) n (%)
Constipation TEAE, any grade: 5 (15.6) n (%)
Constipation TEAE, grade ≥3: 0 n (%)
Constipation TRAE, any grade: 2 (6.3) n (%)
Constipation TRAE, grade ≥3: 0 n (%)
Cough TEAE, any grade: 12 (37.5) n (%)
Cough TEAE, grade ≥3: 0 n (%)
Decreased appetite TEAE, any grade: 15 (46.9) n (%)
Decreased appetite TEAE, grade ≥3: 1 (3.1) n (%)
Decreased appetite TRAE, any grade: 7 (21.9) n (%)
Decreased appetite TRAE, grade ≥3: 0 n (%)
Dehydration TEAE, any grade: 5 (15.6) n (%)
Dehydration TEAE, grade ≥3: 1 (3.1) n (%)
Diarrhea TEAE, any grade: 13 (40.6) n (%)
Diarrhea TEAE, grade ≥3: 3 (9.4) n (%)
Diarrhea TRAE, any grade: 8 (25.0) n (%)
Diarrhea TRAE, grade ≥3: 2 (6.3) n (%)
Dizziness TEAE, any grade: 5 (15.6) n (%)
Dizziness TRAE, any grade: 2 (6.3) n (%)
Dizziness TRAE, grade ≥3: 0 n (%)
Dry mouth TEAE, any grade: 6 (18.8) n (%)
Dry mouth TEAE, grade ≥3: 0 n (%)
Dry mouth TRAE, any grade: 4 (12.5) n (%)
Dry mouth TRAE, grade ≥3: 0 n (%)
Dysphonia TEAE, any grade: 5 (15.6) n (%)
Dysphonia TEAE, grade ≥3: 0 n (%)
Dysphonia TRAE, any grade: 2 (6.3) n (%)
Dysphonia TRAE, grade ≥3: 0 n (%)
Dyspnea TEAE, any grade: 7 (21.9) n (%)
Dyspnea TEAE, grade ≥3: 3 (9.4) n (%)
Edema peripheral TEAE, any grade: 7 (21.9) n (%)
Edema peripheral TEAE, grade ≥3: 1 (3.1) n (%)
Endocrine disorders TEAE, any grade: 6 (18.8) 6 (18.8) n (%)
Fatigue TEAE, any grade: 17 (53.1) n (%)
Fatigue TEAE, grade ≥3: 3 (9.4) n (%)
Fatigue TRAE, any grade: 13 (40.6) n (%)
Fatigue TRAE, grade ≥3: 1 (3.1) n (%)
Gastrointestinal disorders TEAE, any grade: 25 (78.1) n (%)
Gastrointestinal disorders TEAE, grade ≥3: 4 (12.5) n (%)
General disorders and administration site conditions TEAE, any grade: 21 (65.6) n (%)
General disorders and administration site conditions TEAE, grade ≥3: 3 (9.4) n (%)
Headache TEAE, any grade: 9 (28.1) n (%)
Hypertension TEAE, any grade: 11 (34.4) n (%)
Hypertension TEAE, grade ≥3: 6 (18.8) 6 (18.8) n (%)
Hypertension TRAE, any grade: 8 (25.0) n (%)
Hypertension TRAE, grade ≥3: 5 (15.6) n (%)
Hypokalemia TEAE, any grade: 3 (9.4) n (%)
Hypokalemia TEAE, grade ≥3: 0 n (%)
Hypomagnesemia TEAE, any grade: 3 (9.4) n (%)
Hypomagnesemia TEAE, grade ≥3: 0 n (%)
Hyponatremia TEAE, any grade: 3 (9.4) n (%)
Hyponatremia TEAE, grade ≥3: 3 (9.4) n (%)
Hypophosphatemia TEAE, any grade: 2 (6.3) n (%)
Hypophosphatemia TEAE, grade ≥3: 1 (3.1) n (%)
Hypothyroidism TEAE, any grade: 6 (18.8) 6 (18.8) n (%)
Hypothyroidism TRAE, any grade: 3 (9.4) n (%)
Hypothyroidism TRAE, grade ≥3: 0 n (%)
Infections and infestations TEAE, any grade: 16 (50.0) n (%)
Infections and infestations TEAE, grade ≥3: 5 (15.6) n (%)
Injury, poisoning, procedural complications TEAE, any grade: 4 (12.5) n (%)
Injury, poisoning, procedural complications TEAE, grade ≥3: 0 n (%)
Investigations TEAE, any grade: 16 (50.0) n (%)
Investigations TEAE, grade ≥3: 6 (18.8) n (%)
Lipase increased TEAE, any grade: 3 (9.4) n (%)
Lipase increased TEAE, grade ≥3: 1 (3.1) n (%)
